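Cells were grown in 96-well plates and exposed to each compound for 48 hours at five concentrations; endpoints were interpolated linearly between bracketing concentrations, or set to the highest concentration if not reached. Definition used: TGI = concentration required for complete inhibition of growth.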
Tests used:
Assay in all cases: growth of human tumour cells (NCI), 48 h
EKVX NSCLC = tested on: EKVX NSCLC
SK-OV-3 ovarian = tested on: SK-OV-3 ovarian
LOX IMVI melanoma = tested on: LOX IMVI melanoma
HCT-116 colon = tested on: HCT-116 colon
NCI-H522 lung = tested on: NCI-H522 lung
M14 melanoma = tested on: M14 melanoma
T-47D breast = tested on: T-47D breast
TK-10 renal = tested on: TK-10 renal
A549 NSCLC = tested on: A549 NSCLC
MDA-N = tested on: MDA-N
MDA-MB-231 breast = tested on: MDA-MB-231 breast
CAKI-1 renal = tested on: CAKI-1 renal
OVCAR-4 ovarian = tested on: OVCAR-4 ovarian
SK-MEL-28 melanoma = tested on: SK-MEL-28 melanoma
HCC-2998 colon = tested on: HCC-2998 colon
RXF 393 renal = tested on: RXF 393 renal
UACC-62 melanoma = tested on: UACC-62 melanoma
MALME-3M melanoma = tested on: MALME-3M melanoma
HT29 colon = tested on: HT29 colon
SR leukemia = tested on: SR leukemia
SF-268 CNS = tested on: SF-268 CNS
HCT-15 colon = tested on: HCT-15 colon
OVCAR-5 ovarian = tested on: OVCAR-5 ovarian
OVCAR-3 ovarian = tested on: OVCAR-3 ovarian
SNB-19 CNS = tested on: SNB-19 CNS
BT-549 breast = tested on: BT-549 breast
ACHN renal = tested on: ACHN renal
RPMI-8226 leukemia = tested on: RPMI-8226 leukemia
UACC-257 melanoma = tested on: UACC-257 melanoma
PC-3 prostate = tested on: PC-3 prostate
NCI-H226 lung = tested on: NCI-H226 lung
HL-60(TB) leukemia = tested on: HL-60(TB) leukemia
SF-539 CNS = tested on: SF-539 CNS
NCI/ADR-RES ovarian = tested on: NCI/ADR-RES ovarian
SK-MEL-2 melanoma = tested on: SK-MEL-2 melanoma
U251 CNS = tested on: U251 CNS
MDA-MB-435 = tested on: MDA-MB-435
786-0 renal = tested on: 786-0 renal
NCI-H23 lung = tested on: NCI-H23 lung
KM12 colon = tested on: KM12 colon
UO-31 renal = tested on: UO-31 renal
SF-295 CNS = tested on: SF-295 CNS
SW-620 colon = tested on: SW-620 colon
A498 renal = tested on: A498 renal
HS 578T breast = tested on: HS 578T breast
OVCAR-8 ovarian = tested on: OVCAR-8 ovarian
K-562 leukemia = tested on: K-562 leukemia
MCF7 breast = tested on: MCF7 breast
NCI-H460 lung = tested on: NCI-H460 lung
HOP-92 NSCLC = tested on: HOP-92 NSCLC
MOLT-4 leukemia = tested on: MOLT-4 leukemia
SNB-75 CNS = tested on: SNB-75 CNS
SN12C renal = tested on: SN12C renal
CCRF-CEM leukemia = tested on: CCRF-CEM leukemia
IGROV1 ovarian = tested on: IGROV1 ovarian
SK-MEL-5 melanoma = tested on: SK-MEL-5 melanoma
HOP-62 NSCLC = tested on: HOP-62 NSCLC
COLO 205 colon = tested on: COLO 205 colon
DU-145 prostate = tested on: DU-145 prostate

Measured: TGI

Cc1cc(Cl)ccc1NC(=O)/C(Cc1nc2ccc(C(=O)c3ccccc3)cc2[nH]c1=O)=N/NC(=O)c1ccncc1
not listed: COLO 205 colon | DU-145 prostate
> 100 µM: all other assays above

O=S(=O)(O)c1cccc2ccc(O)c(N=Nc3ccc(S(=O)(=O)c4ccc(N=Nc5c(O)ccc6cccc(S(=O)(=O)O)c56)cc4)cc3)c12
not listed: LOX IMVI melanoma | HCC-2998 colon | SR leukemia | SF-539 CNS | A498 renal | MCF7 breast | NCI-H460 lung
> 100 µM: all other assays above
